Results published in patent US8859580B2 (Boehringer Ingelheim International GmbH, priority 2007, dated 2014).

molecular target: T1, 11β-HSD1 (Homo sapiens, UniProt P28845); assay: In vitro inhibition of 11β-HSD1, HTRF detection of cortisol generated from cortisone by human liver microsomes; format: biochemical; settings: 11β-HSD IC50 (nM), 1 hour at 37° C., pH 6.0, NADPH 200 μM, cortisone 80 nM, inhibition relative to carbenoxolone signal
T1 construct: detecting cortisol generated from cortisterone by human liver microsomes; from tissue; host or cells: human liver microsomes
T1 sequence (P28845 whole entry): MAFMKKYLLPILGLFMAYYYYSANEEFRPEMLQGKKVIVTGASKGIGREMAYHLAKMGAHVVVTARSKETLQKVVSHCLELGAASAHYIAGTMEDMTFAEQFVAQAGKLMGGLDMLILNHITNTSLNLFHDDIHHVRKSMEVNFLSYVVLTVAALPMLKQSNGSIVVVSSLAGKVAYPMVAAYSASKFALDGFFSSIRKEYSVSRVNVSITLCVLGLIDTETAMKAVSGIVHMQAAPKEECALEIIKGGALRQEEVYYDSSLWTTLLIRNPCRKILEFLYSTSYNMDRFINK
How it was run: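 Inhibition expressed against the carbenoxolone signal and fitted to IC50 curves. Readout: HTRF competition between microsomal cortisol and XL665-labelled cortisol for Eu-cryptate anti-cortisol antibody (typically 2 h), with emission ratio 665/615 calibrated to cortisol concentration.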

SMILES | IC50
CC12CCN(C(=O)c3ccc4nc[nH]c4c3)C(Cc3cc(O)ccc31)C2(C)C (stereo not drawn) [Example 59, (3H-Benzoimidazol-5-yl)-(9-hydroxy-6,11,11-trimethyl-1,2,5,6-tetrahydro-4H-2,6-methano-benzo[d]azocin-3-yl)-methanone] | 36 nM
CC1(C)[C@H]2Cc3c(O)cccc3[C@]1(C)CCN2C(=O)c1ccc(N2CCNCC2)cc1 [Example 26, [(2R,6S)-10-Hydroxy-6,11,11-trimethyl-1,2,5,6-tetrahydro-4H-2,6-methano-benzo[d]azocin-3-yl]-(4-piperazin-1-yl-phenyl)-methanone] | 2890 nM
CC12CCN(C(=O)c3ccc4nc[nH]c4c3)C(Cc3cc(N)ccc31)C2(C)C (stereo not drawn) [Example 141, (9-Amino-6,11,11-trimethyl-1,2,5,6-tetrahydro-4H-2,6-methano-benzo[d]azocin-3-yl)-(3H-benzoimidazol-5-yl)-methanone] | 59 nM
Cc1nccc(-c2ccc3c(c2)[C@]2(C)CCN(C(=O)c4ccc5nc[nH]c5c4)[C@H](C3)[C@H]2C)n1 [Example 262, (3H-Benzoimidazol-5-yl)-[(2R,6R,11S)-6,11-dimethyl-8-(2-methyl-pyrimidin-4-yl)-1,2,5,6-tetrahydro-4H-2,6-methano-benzo[d]azocin-3-yl]-methanone] | 73 nM
CC(O)c1cccc(C(=O)N2CC[C@@]3(C)c4ccccc4C[C@@H]2C3(C)C)c1 (stereo partly drawn) [Example 314, [3-(1-Hydroxy-ethyl)-phenyl]-[(2R,6S)-6,11,11-trimethyl-1,2,5,6-tetrahydro-4H-2,6-methano-benzo[d]azocin-3-yl]-methanone] | 162 nM
CC(C)(C)c1nc2cc3c(cc2o1)C[C@H]1N(C(=O)c2ccc4nc[nH]c4c2)CC[C@]3(C)C1(C)C [Example 312, (3H-Benzoimidazol-5-yl)-[(6R,10S)-2-tert-butyl-5,6,7,8,9,10-hexahydro-10,12,12-trimethyl-6,10-methano-oxazolo[4,5-i][3]benzazocin-7-yl]-methanone] | 103 nM
CC1(C)C2Cc3ccccc3C1(O)CCN2C(=O)c1ccc2nc[nH]c2c1 (stereo not drawn) [Example 57, (3H-Benzoimidazol-5-yl)-(6-hydroxy-11,11-dimethyl-1,2,5,6-tetrahydro-4H-2,6-methano-benzo[d]azocin-3-yl)-methanone] | 137 nM
CC(C)(O)c1ccc(C(=O)N2CC[C@@]3(C)c4ccccc4C[C@@H]2C3(C)C)cc1 [Example 306, [4-(1-Hydroxy-1-methyl-ethyl)-phenyl]-[(2R,6S)-6,11,11-trimethyl-1,2,5,6-tetrahydro-4H-2,6-methano-benzo[d]azocin-3-yl]-methanone] | 978 nM
Cn1cc(C(=O)N2CC[C@@]3(C)c4cccc(O)c4C[C@@H]2C3(C)C)c2ccccc21 [Example 199, [(2R,6S)-10-Hydroxy-6,11,11-trimethyl-1,2,5,6-tetrahydro-4H-2,6-methano-benzo[d]azocin-3-yl]-(1-methyl-1H-indol-3-yl)-methanone] | 137 nM
CC1(C)C2CCN(C(=O)c3ccc4nc[nH]c4c3)C1Cc1c(O)cccc12 (stereo not drawn) [Example 183, (3H-Benzoimidazol-5-yl)-(10-hydroxy-11,11-dimethyl-1,2,5,6-tetrahydro-4H-2,6-methano-benzo[d]azocin-3-yl)-methanone] | 155 nM
CNc1ccc(C(=O)N2CC[C@@]3(C)c4cccc(O)c4C[C@@H]2C3(C)C)cc1 [Example 48, [(2R,6S)-10-Hydroxy-6,11,11-trimethyl-1,2,5,6-tetrahydro-4H-2,6-methano-benzo[d]azocin-3-yl]-(4-methylamino-phenyl)-methanone] | 364 nM
CC(=O)NCc1ccc2c(c1)CC1N(C(=O)c3ccc4nc[nH]c4c3)CCC2(C)C1(C)C (stereo not drawn) [Example 178, N-[3-(3H-Benzoimidazole-5-carbonyl)-6,11,11-trimethyl-1,2,3,4,5,6-hexahydro-2,6-methano-benzo[d]azocin-9-ylmethyl]-acetamide] | 159 nM
